Laboratory results from patent US10456343B2, “Microemulsion compositions comprising polydatin and method of use” (L'OREAL, priority 2017, dated 2019).

Experiment: Solubility of polydatin in the microemulsion compositions
Type: physicochemical
Settings: solubilized in microemulsion
Source text: The inventors of the instant disclosure discovered that the incorporation of polydatin into the microemulsion compositions disclosed herein results in a variety of surprising and unexpected results. […] A higher amount of solubilized polydatin is particularly beneficial in cosmetic compositions for application to the skin because it allows for increased transdermal delivery. The inventors also unexpectedly discovered that polydatin acts as a “clarifying agent,” i.e., it improves or enhances the transparency (clarity) of microemulsion compositions. […] Both formulations include baicalin. […] Thus, in addition to polydatin, the microemulsion composition of the instant disclosure are effective for incorporating baicalin into cosmetic and/or pharmaceutical compositions.

Compound: OC[C@H]1O[C@@H](Oc2cc(O)cc(/C=C/c3ccc(O)cc3)c2)[C@H](O)[C@@H](O)[C@@H]1O [polydatin, 3,4′,5-trihydroxystibene-3-β-mono-D glucoside]
- solubility of polydatin in the microemulsion compositions: up to 1.5%
